Laboratory results published in patent publication US7252950B1, “Assays for detecting modulators of cytoskeletal function” (priority 1997, dated 2007).

Assays:
[1] = target: rabbit kidney ATPase; assay: ATPase activity assay, specificity panel; type: biochemical; settings: highest used inhibitor concentration 136 μM, read-out: Concentration causing 50% inhibition of enzymatic activity (C50)
Procedure: (§1) One such ATPase assay is described in the examples below. In one preferred embodiment, the ATPase activity assay utilizes 0.3 M PCA (perchloric acid) and malachite green reagent (8.27 mM sodium molybdate II, 0.33 mM malachite green oxalate, and 0.8 mM Triton X-100). To perform the assay, 10 μL of reaction is quenched in 90 μl of cold 0.3 M PCA. Phosphate standards are used so data can be converted to mM inorganic phosphate released.
(§2) When all reactions and standards have been quenched in PCA, 100 μl of malachite green reagent is added to the to relevant wells in e.g., a microtiter plate. The mixture is developed for 10-15 minutes and the plate is read at an absorbance of 650 nm. If phosphate standards were used, absorbance readings can be converted to mM Pi and plotted over time.
(§3) […]

[2] = target: Myosin II (EDTA); assay: ATPase activity assay, specificity panel (EDTA activated ATPase); type: biochemical; settings: read-out: Concentration causing 50% inhibition of enzymatic activity (C50)
Procedure: as §1, §2, §3

[3] = target: TI-γ; assay: ATPase activity assay, specificity panel; type: biochemical, Thermomyces lanuginosus; settings: at 2 μM tubulin, read-out: Concentration causing 50% inhibition of enzymatic activity (C50)
Procedure: as §1, §2
TI-γ (a kinesin superfamily member from the fungus Thermomyces lanuginosus) was adsorbed to a glass coverslip and supplemented with a mixture of microtubules, 2 mM Mg-ATP, and sponge extracts in DMSO (5% final concentration). Motility was scored visually on a Zeiss Axioplan microscope sat up for DIC and fitted with an Argus 10 video processor (Hamamatsu).
Initial rate measurements were done at room temperature using a malachite green assay (Geladopoulos et al. (1991) Anal. Biochem., 192: 112-116) modified to work in 96 well microtiter plates and scored on a plate reader at 650 nm. […]

[4] = target: T1, microtubule stimulated ATPase of kinesin (Drosophila melanogaster, UniProt P17210); assay: Microtubule-stimulated kinesin ATPase, steady state kinetics; type: biochemical
T1 construct: kinesin heavy chain fragment containing amino acids 5-351 of the wild type protein; hexahistidine (C); made in house; host or cells: bacterial cells (IPTG induced)
T1 sequence (P17210 5-351): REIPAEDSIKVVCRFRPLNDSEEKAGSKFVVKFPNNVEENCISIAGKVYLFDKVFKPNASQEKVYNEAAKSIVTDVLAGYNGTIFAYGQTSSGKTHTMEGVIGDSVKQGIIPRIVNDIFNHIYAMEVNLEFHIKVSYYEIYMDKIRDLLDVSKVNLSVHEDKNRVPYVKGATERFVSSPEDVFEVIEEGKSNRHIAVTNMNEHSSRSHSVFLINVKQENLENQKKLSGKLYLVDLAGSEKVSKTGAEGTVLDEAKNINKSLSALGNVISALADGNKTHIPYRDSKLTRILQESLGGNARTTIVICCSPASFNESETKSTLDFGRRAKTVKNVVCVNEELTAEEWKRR
Procedure: (§4) All kinetic and binding measurements were performed on a bacterially expressed Drosophila kinesin heavy chain fragment containing amino acids 5-351 of the wild type protein and a hexahistidine tag at the C-terminus. Protein was purified from the soluble fraction of IPTG induced bacterial cells by a single round of affinity chromatography on Ni—NTA-agarose (Qiagen), concentrated by microfiltration, and frozen in small aliquots in liquid nitrogen.
(§5) Initial rate measurements were done at room temperature using a malachite green assay (Geladopoulos et al. (1991) Anal. Biochem., 192: 112-116) modified to work in 96 well microtiter plates and scored on a plate reader at 650 nm. ATP concentration dependence and basal ATPase rate were determined by a coupled enzymatic assay with pyruvate kinase and lactate dehydrogenase monitoring changes in absorbance at 340 nm. Phosphate standards (650 μM-7 μM) were included with each reading.
Extracts from 268 marine sponges were initially tested for their ability to disrupt normal behavior of microtubules in a gliding motility assay. This screening method allowed immediate distinction between substances that affected microtubule movement and those that caused microtubule depolymerization or breakage. Active extracts from the initial screening were then tested for inhibition of the microtubule-stimulated kinesin ATPase.

[5] = target: T2, kinesin binding to microtubules (Drosophila melanogaster, UniProt P17210); assay: Kinesin-microtubule co-sedimentation assay with AMP-PNP; settings: co-sedimentation in the presence of AMP-PNP
T2 construct: kinesin heavy chain fragment containing amino acids 5-351 of the wild type protein; hexahistidine (C); made in house; host or cells: bacterial cells (IPTG induced)
T2 sequence (P17210 5-351): T1 sequence (P17210 5-351)
Procedure: as §4
This was tested by performing a kinesin-microtubule co-sedimentation assay in the presence of a nonhydrolysable ATP analog, AMP-PNP, with or without adociasulfate.

[6] = target: T3, basal kinesin ATPase (Drosophila melanogaster, UniProt P17210); assay: Basal (non microtubule-stimulated) kinesin ATPase rate, coupled enzymatic assay; type: biochemical; settings: absence of microtubules; up to 136 μM (the highest tested)
T3 construct: kinesin heavy chain fragment containing amino acids 5-351 of the wild type protein; hexahistidine (C); made in house; host or cells: bacterial cells (IPTG induced)
T3 sequence (P17210 5-351): T1 sequence (P17210 5-351)
Procedure: as §4, §5
In contrast, varying the ATP concentration had no effect on the overall shape of the kinetic curves. […] An additional argument against adociasulfate binding at the nucleotide pocket comes from the lack of an inhibitory effect on the basal, non microtubule-stimulated rate of the kinesin ATPases. If adociasulfate interfered with nucleotide binding, or locked the enzyme in a particular nucleotide-bound state, ATP turnover in the absence of microtubule should be decreased.

[7] = target: T4, kinesin (K-ADP state) (Drosophila melanogaster, UniProt P17210); assay: ADP release from kinesin; type: biochemical; settings: varying concentrations of adociasulfate
T4 construct: kinesin heavy chain fragment containing amino acids 5-351 of the wild type protein; hexahistidine (C); made in house; host or cells: bacterial cells (IPTG induced)
T4 sequence (P17210 5-351): T1 sequence (P17210 5-351)
Procedure: as §4
The percent of ADP released from the enzyme was determined by the methods of Hackney (see, e.g., Hackney (1994) J. Biol. Chem., […]: 16508-16511). Briefly, 80 μM kinesin was preincubated with α-^32PATP at room temperature for 15 min and than stored on ice. 1 μl aliquots of that mixture were diluted into 100 μl of “chase mix” containing 0.5 mg/ml pyruvate kinase, 2 mM phosphoenalpyruvate, and varying concentrations of adociasulfate. […] The amount of ADP that became accessible to pyruvate kinase and was converted to ATP was determined by a thin layer chromatography on PEI-cellulose followed by phosphoimager quantitation.
Microtubule binding to kinesin induced 1,000-fold stimulation of the basal ATPase rate, owing primarily to accelerated ADP release. […] The adociasulfate concentration at 50% of maximum burst is much higher than the K1 determined in steady state microtubule competition assays. […]

In the case of `CC1(C)CCC[C@]2(C)O[C@H]3CC[C@@]4(C)[C@@H](CC[C@]5(C)[C@@H]4CC[C@]4(C)c6c(OS(=O)(=O)O)ccc(OS(=O)(=O)O)c6C[C@@H]54)[C@]3(C)CC[C@@H]12` [adociasulfate], the IC50 [1] is reported as > 136 µM, the IC50 [2] is reported as 75 µM and the IC50 [3] is reported as 2000 nM. The Mode of inhibition ([4]; steady state kinetic measurements, varying microtubule concentration) was “competitive with microtubules”, the Vmax ([4]; varying ATP concentration, higher adociasulfate concentrations) was “progressively lower” and the “Effect on binding of kinesin to microtubules” value [5] was “abolished binding of kinesin to microtubules”. For the same molecule, the “Effect on basal ATPase rate” value [6] was “did not inhibit the basal ATPase rate” and the “ADP release from kinesin” value [7] was “bursts of ADP release were observed”.
